# Source: paper PMC3660367, “MARCKS Protein Is Phosphorylated and Regulates Calcium Mobilization during Human Acrosomal Exocytosis” (PLoS ONE, 2013)
# No end group written: not given here.
# Key:
# living human sperm = experiment: Permeation of ED-TMR into non-permeabilized human sperm (fluorescence microscopy, trypsin treatment before fixation); assay type: cell-based; settings: 4 µM ED-TMR 30 min 37°C, then 0.5 µg/ml trypsin 30 min 37°C before fixation
# From the text: So far all results were obtained using the SLO-permeabilized human sperm model. […] Fortunately, MARCKS ED meets this requirement and it can be assayed in acrosomal exocytosis in non-permeabilized sperm. To investigate the function of MARCKS in intact cells, we analyzed the effect of a permeable peptide corresponding to wt MARCKS ED in living human sperm. We used a commercial MARCKS peptide, the tetramethylrhodamine-conjugated peptide sequence KKRFSFKKSFKL (ED-TMR) derived from amino acid residues 154 –165 of human MARCKS ED, which retains the first two of the four serine residues in the ED (see peptide scheme in Fig. 3A). First, we determined the permeability of ED-TMR in living human sperm (see Fig. S3). To rule out that the translocation of the protein was a fixation artifact, cells were treated with trypsin before fixation. […] A similar permeable MARCKS peptide has been used in sea urchin sperm and it was found enriched in the acrosome region.
# Supplementary file pone.0064551.s003.tif: Figure S3 MARCKS peptide permeates into non-permeabilized sperm. (A) Non-permeabilized sperm were treated for 30 minutes at 37°C with 4 µM permeable MARCKS ED domain (ED-TMR) and then incubated with (+) or without (-) 0.5 µg/ml trypsin for 30 minutes at 37°C. […] (B) Quantification of tetramethylrhodamine-labeled acrosome sperm. At least 300 cells were scored. […]
# [1] = tested on: acrosomal exocytosis in non-permeabilized human sperm; experiment: Acrosomal exocytosis assay in non-permeabilized (living) human sperm; assay type: cell-based
# Procedure: Acrosomal exocytosis assays were performed as previously described. Briefly, human semen obtained from normal healthy donors was allowed to liquefy for 30-60 min at 37°C. We used a swim-up protocol to isolate highly motile sperm under capacitating conditions in Human Tubal Fluid media (HTF, as formulated by Irvine Scientific, Santa Ana, CA) supplemented with 0.5% bovine serum albumin (BSA) for 1 h at 37°C in an atmosphere of 5% CO2/95% air. Sperm concentrations were adjusted to 5–10×10^6 cells/ml and incubated for at least 2 h under capacitating conditions. We have shown previously that human sperm incubated under these conditions are responsive to progesterone. […] Acrosomal status was evaluated by staining with FITC-coupled Pisum sativum agglutinin (FITC-PSA) according to [21]. At least 200 cells were scored using a Nikon Optiphot II microscope equipped with epifluorescence optics. […] For each experiment, acrosomal exocytosis indexes were calculated by subtracting the number of reacted spermatozoa in the negative control (range 10%–30%) from all values, and expressing the resulting values as a percentage of the acrosome exocytosis observed in the positive control (range 25%–40%). […] Data were evaluated using one-way ANOVA and post hoc tests (Dunnett's test or confident intervals). […]
sequence,measurement,setting,value
"KKRFSFKKSFKL (also: tetramethylrhodamine conjugate, site not given here) [ED-TMR, commercial (Anaspec) tetramethylrhodamine-conjugated peptide … from residues 154–165 of human MARCKS ED]",permeability of ED-TMR in living human sperm (localisation),living human sperm,detected mainly in the head of human sperm
same,"effect on acrosomal exocytosis stimulated by A23187, PMA and progesterone","[1]; non-permeabilized capacitated sperm, peptide 30 min 37°C, then 10 µM A23187, 200 nM PMA or 15 µM progesterone 15 min",inhibited the secretion
same,acrosomal exocytosis index at high concentrations versus unstimulated controls (basal exocytosis),"[1]; non-permeabilized sperm, high concentrations",significantly lower than the index in unstimulated controls
